Key:
Assay type in all cases: in vivo
[1] = tested on: redroot pigweed (Amaranthus retroflexus); experiment: Test A pre/postemergence
Method in brief: (§1)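 Ratings: 0 = no effect, 100 = complete control, assessed visually about ten days post-treatment in a greenhouse. Applications: soil-directed preemergence spray and postemergence spray on 1- to 2-leaf plants, both using a surfactant-containing non-phytotoxic solvent formulation.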

[2] = tested on: barnyardgrass (Echinochloa crus-galli); experiment: Test A pre/postemergence
Method in brief: as §1

[3] = tested on: velvetleaf (Abutilon theophrasti); experiment: Test A pre/postemergence
Method in brief: as §1

[4] = tested on: giant foxtail (Setaria faberi); experiment: Test A pre/postemergence
Method in brief: as §1

[5] = tested on: morningglory (Ipomoea spp.); experiment: Test A pre/postemergence
Method in brief: as §1

[6] = tested on: crabgrass (Digitaria sanguinalis); experiment: Test A pre/postemergence
Method in brief: as §1

[7] = tested on: ducksalad (Heteranthera limosa); experiment: Test E flooded paddy water application; settings: Flood, 21 days, scale 0 to 100 (0 no effect, 100 complete control)
Method in brief: (§2)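 Greenhouse pots of Tama silt loam with weeds and rice at 2.0–2.5-leaf stage, flooded to 3 cm; compounds applied directly into paddy water, depth maintained. Visual rating versus untreated controls after 21 days, 0 (no effect) to 100 (complete control); 29.5/26.7 °C, 16-h photoperiod.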

[8] = tested on: smallflower umbrella sedge (Cyperus difformis); experiment: Test E flooded paddy water application; settings: Flood, 21 days, scale 0 to 100 (0 no effect, 100 complete control)
Method in brief: as §2

[9] = tested on: barnyardgrass (Echinochloa crus-galli); experiment: Test E flooded paddy water application; settings: Flood, 21 days, scale 0 to 100 (0 no effect, 100 complete control)
Method in brief: as §2

[10] = tested on: water seeded rice seedlings (Oryza sativa cv. ‘Japonica-M202’); experiment: Test E flooded paddy water application; settings: Flood, 21 days, scale 0 to 100 (0 no effect, 100 complete control)
Method in brief: as §2

[11] = tested on: transplanted rice seedlings (Oryza sativa cv. ‘Japonica-M202’); experiment: Test E flooded paddy water application; settings: Flood, 21 days, scale 0 to 100 (0 no effect, 100 complete control)
Method in brief: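 Response scored visually on a 0–100 scale (100 = complete control) at 21 days against untreated pots. Treatment was into paddy water 3 cm deep over silt loam, with plants at the 2.0–2.5-leaf stage, grown under 16-h light at 29.5/26.7 °C day/night.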

[12] = tested on: bearded (brdd.) sprangletop (Leptochloa fusca ssp. fascicularis); experiment: Test E flooded paddy water application; settings: Flood, 21 days, scale 0 to 100 (0 no effect, 100 complete control)
Method in brief: as §2

[13] = tested on: rice flatsedge (Cyperus iria); experiment: Test E flooded paddy water application; settings: Flood, 21 days, scale 0 to 100 (0 no effect, 100 complete control)
Method in brief: as §2

[14] = tested on: late watergrass (Echinochloa oryzicola); experiment: Test E flooded paddy water application; settings: Flood, 21 days, scale 0 to 100 (0 no effect, 100 complete control)
Method in brief: as §2

[15] = tested on: purple redstem (Ammannia coccinea); experiment: Test E flooded paddy water application; settings: Flood, 21 days, scale 0 to 100 (0 no effect, 100 complete control)
Method in brief: as §2

[16] = tested on: junglerice (Echinochloa colona); experiment: Test E flooded paddy water application; settings: Flood, 21 days, scale 0 to 100 (0 no effect, 100 complete control)
Method in brief: as §2

[17] = tested on: early watergrass (Echinochloa oryzoides); experiment: Test E flooded paddy water application; settings: Flood, 21 days, scale 0 to 100 (0 no effect, 100 complete control)
Method in brief: as §2

[18] = Postemergence, 125 g ai/ha, 0 to 100 scale (0 no effect, 100 complete control)
[19] = Postemergence, 500 g ai/ha, 0 to 100 scale (0 no effect, 100 complete control)
[20] = Preemergence, 125 g ai/ha, 0 to 100 scale where 0 is no effect and 100 is complete control, approximately ten days
[21] = Preemergence, 500 g ai/ha, 0 to 100 scale where 0 is no effect and 100 is complete control, approximately ten days

Compound: Nc1nc(-c2ccc(Cl)cc2)nc(C(=O)OCc2ccccc2)c1Cl [Compound 118]
- Plant response rating, Pigweed [1, 18]: 60
- Plant response rating, Pigweed [1, 19]: 75
- Plant response rating, Pigweed [1, 20]: 10
- Plant response rating, Pigweed [1, 21]: 55
- Plant response rating, Barnyardgrass [2, 18]: 0
- Plant response rating, Barnyardgrass [2, 19]: 0
- Plant response rating, Barnyardgrass [2, 20]: 0
- Plant response rating, Barnyardgrass [2, 21]: 10
- Plant response rating, Velvetleaf [3, 18]: 90
- Plant response rating, Velvetleaf [3, 19]: 95
- Plant response rating, Velvetleaf [3, 20]: 0
- Plant response rating, Velvetleaf [3, 21]: 15
- Plant response rating, Foxtail, Giant [4, 18]: 0
- Plant response rating, Foxtail, Giant [4, 19]: 15
- Plant response rating, Foxtail, Giant [4, 20]: 0
- Plant response rating, Foxtail, Giant [4, 21]: 15
- Plant response rating, Morningglory [5, 18]: 65
- Plant response rating, Morningglory [5, 19]: 70
- Plant response rating, Morningglory [5, 20]: 0
- Plant response rating, Morningglory [5, 21]: 0
- Plant response rating, Crabgrass [6, 18]: 10
- Plant response rating, Crabgrass [6, 19]: 20
- Plant response rating, Crabgrass [6, 20]: 10
- Plant response rating, Crabgrass [6, 21]: 25
- Ducksalad plant response rating ([7]; 32 g ai/ha): 100
- Ducksalad plant response rating ([7]; 64 g ai/ha): 100
- Ducksalad plant response rating ([7]; 125 g ai/ha): 100
- Ducksalad plant response rating ([7]; 250 g ai/ha): 100
- Plant response rating, Ducksalad ([7]; 16 g ai/ha): 100
- Sedge, Umbrella plant response rating ([8]; 32 g ai/ha): 95
- Sedge, Umbrella plant response rating ([8]; 64 g ai/ha): 100
- Sedge, Umbrella plant response rating ([8]; 125 g ai/ha): 100
- Sedge, Umbrella plant response rating ([8]; 250 g ai/ha): 100
- Plant response rating, Sedge, Umbrella ([8]; 16 g ai/ha): 85
- Barnyardgrass plant response rating ([9]; 32 g ai/ha): 0
- Barnyardgrass plant response rating ([9]; 64 g ai/ha): 0
- Barnyardgrass plant response rating ([9]; 125 g ai/ha): 0
- Barnyardgrass plant response rating ([9]; 250 g ai/ha): 0
- Plant response rating, Barnyardgrass ([9]; 16 g ai/ha): 0
- Rice, Water Seeded plant response rating ([10]; 32 g ai/ha): 0
- Rice, Water Seeded plant response rating ([10]; 64 g ai/ha): 0
- Rice, Water Seeded plant response rating ([10]; 125 g ai/ha): 0
- Rice, Water Seeded plant response rating ([10]; 250 g ai/ha): 0
- Plant response rating, Rice, Water Seeded ([10]; 16 g ai/ha): 0
- Rice, Transplanted plant response rating ([11]; 32 g ai/ha): 0
- Rice, Transplanted plant response rating ([11]; 64 g ai/ha): 0
- Rice, Transplanted plant response rating ([11]; 125 g ai/ha): 0
- Rice, Transplanted plant response rating ([11]; 250 g ai/ha): 0
- Plant response rating, Rice, Transplanted ([11]; 16 g ai/ha): 0
- Sprangletop, Brdd. plant response rating ([12]; 32 g ai/ha): 0
- Sprangletop, Brdd. plant response rating ([12]; 64 g ai/ha): 0
- Sprangletop, Brdd. plant response rating ([12]; 125 g ai/ha): 70
- Sprangletop, Brdd. plant response rating ([12]; 250 g ai/ha): 85
- Plant response rating, Sprangletop, Brdd. ([12]; 16 g ai/ha): 0
- Flatsedge, Rice plant response rating ([13]; 32 g ai/ha): 95
- Flatsedge, Rice plant response rating ([13]; 64 g ai/ha): 95
- Flatsedge, Rice plant response rating ([13]; 125 g ai/ha): 95
- Flatsedge, Rice plant response rating ([13]; 250 g ai/ha): 100
- Plant response rating, Flatsedge, Rice ([13]; 16 g ai/ha): 85
- Watergrass, Late plant response rating ([14]; 32 g ai/ha): 0
- Watergrass, Late plant response rating ([14]; 64 g ai/ha): 0
- Watergrass, Late plant response rating ([14]; 125 g ai/ha): 0
- Watergrass, Late plant response rating ([14]; 250 g ai/ha): 0
- Plant response rating, Watergrass, Late ([14]; 16 g ai/ha): 0
- Redstem plant response rating ([15]; 32 g ai/ha): 20
- Redstem plant response rating ([15]; 64 g ai/ha): 30
- Redstem plant response rating ([15]; 125 g ai/ha): 50
- Redstem plant response rating ([15]; 250 g ai/ha): 85
- Plant response rating, Redstem ([15]; 16 g ai/ha): 0
- Junglerice plant response rating ([16]; 32 g ai/ha): 40
- Junglerice plant response rating ([16]; 64 g ai/ha): 45
- Junglerice plant response rating ([16]; 125 g ai/ha): 65
- Junglerice plant response rating ([16]; 250 g ai/ha): 65
- Plant response rating, Junglerice ([16]; 16 g ai/ha): 0
- Watergrass, Early plant response rating ([17]; 32 g ai/ha): 0
- Watergrass, Early plant response rating ([17]; 64 g ai/ha): 0
- Watergrass, Early plant response rating ([17]; 125 g ai/ha): 0
- Watergrass, Early plant response rating ([17]; 250 g ai/ha): 0
- Plant response rating, Watergrass, Early ([17]; 16 g ai/ha): 0

Source: patent publication US8802597B2, “Herbicidal pyrimidines” (E I du Pont de Nemours and Company, priority 2003, dated 2014)
